± gives the standard deviation of the averaged measurements.
tested on: HCI-023 (organoid from a triple-negative breast cancer xenograft); experiment: CTG-3D luminescence at 96 h relative to day-0 seeding control (ratio to day 0); higher = more growth / less cytotoxicity; PDxO 3D drug screen, 96 h, CTG-3D normalised to day-0 seeding control.; details: 625 fM; days in culture: 128

SMILES	CTG-3D luminescence at 96 h
O=C(c1ccc(F)c(F)c1Nc1ccc(I)cc1F)N1CC(O)([C@@H]2CCCCN2)C1 [cobimetinib]	1.65 ± 0.51
C[C@H](NC(=O)CCC(F)(F)F)C(=O)N[C@@H]1C(=O)N(CCO)c2ncccc2-c2ccccc21 [crenigacestat]	1.53 ± 0.55
Cc1cc(Nc2ncc(Cl)c(Nc3ccccc3S(=O)(=O)C(C)C)n2)c(OC(C)C)cc1C1CCNCC1 [ceritinib]	1.65 ± 0.49
CS(=O)(=O)c1ccc(C(=O)Nc2ccc(Cl)c(-c3ccccn3)c2)c(Cl)c1 [vismodegib]	1.67 ± 0.22
NC(=O)c1cccc2cn(-c3ccc([C@@H]4CCCNC4)cc3)nc12 [niraparib]	1.67 ± 0.12

tested on: MDA-MB-231; experiment: as above; details: 12.5 pM

SMILES	CTG-3D luminescence at 96 h
C[C@@H]1COCCN1c1cc(C2([S@](C)(=N)=O)CC2)nc(-c2cc[nH]c3nccc2-3)n1 [ceralasertib]	4.45 ± 1.3
CCN1CCN(Cc2ccc(Nc3ncc(F)c(-c4cc(F)c5nc(C)n(C(C)C)c5c4)n3)nc2)CC1 [abemaciclib]	4.61 ± 1.4
NC1(C(=O)N[C@@H](CCO)c2ccc(Cl)cc2)CCN(c2nc[nH]c3nccc2-3)CC1 [capivasertib]	4.33 ± 1.4
CC(C)n1nc(-c2ccc3oc(N)nc3c2)c2c(N)ncnc21 [sapanisertib]	4.45 ± 1.5
O=C(c1ccc(F)c(F)c1Nc1ccc(I)cc1F)N1CC(O)([C@@H]2CCCCN2)C1 [cobimetinib]	4.37 ± 1.3
C[C@H](NC(=O)CCC(F)(F)F)C(=O)N[C@@H]1C(=O)N(CCO)c2ncccc2-c2ccccc21 [crenigacestat]	4.47 ± 1.4
Cc1cc(Nc2ncc(Cl)c(Nc3ccccc3S(=O)(=O)C(C)C)n2)c(OC(C)C)cc1C1CCNCC1 [ceritinib]	4.39 ± 1.4
CS(=O)(=O)c1ccc(C(=O)Nc2ccc(Cl)c(-c3ccccn3)c2)c(Cl)c1 [vismodegib]	4.58 ± 1.3
NC(=O)c1cccc2cn(-c3ccc([C@@H]4CCCNC4)cc3)nc12 [niraparib]	4.51 ± 1.2

same assay, conditions: 0.00025 µM

SMILES	CTG-3D luminescence at 96 h
C[C@@H]1COCCN1c1cc(C2([S@](C)(=N)=O)CC2)nc(-c2cc[nH]c3nccc2-3)n1 [ceralasertib]	4.38 ± 1.4
CCN1CCN(Cc2ccc(Nc3ncc(F)c(-c4cc(F)c5nc(C)n(C(C)C)c5c4)n3)nc2)CC1 [abemaciclib]	4.47 ± 1.4
NC1(C(=O)N[C@@H](CCO)c2ccc(Cl)cc2)CCN(c2nc[nH]c3nccc2-3)CC1 [capivasertib]	4.28 ± 1.4
CC(C)n1nc(-c2ccc3oc(N)nc3c2)c2c(N)ncnc21 [sapanisertib]	4.42 ± 1.5
O=C(c1ccc(F)c(F)c1Nc1ccc(I)cc1F)N1CC(O)([C@@H]2CCCCN2)C1 [cobimetinib]	4.46 ± 1.5
C[C@H](NC(=O)CCC(F)(F)F)C(=O)N[C@@H]1C(=O)N(CCO)c2ncccc2-c2ccccc21 [crenigacestat]	4.32 ± 1.4
Cc1cc(Nc2ncc(Cl)c(Nc3ccccc3S(=O)(=O)C(C)C)n2)c(OC(C)C)cc1C1CCNCC1 [ceritinib]	4.39 ± 1.3
CS(=O)(=O)c1ccc(C(=O)Nc2ccc(Cl)c(-c3ccccn3)c2)c(Cl)c1 [vismodegib]	4.44 ± 1.4
NC(=O)c1cccc2cn(-c3ccc([C@@H]4CCCNC4)cc3)nc12 [niraparib]	4.46 ± 1.5

same assay, conditions: 0.005 µM

SMILES	CTG-3D luminescence at 96 h
C[C@@H]1COCCN1c1cc(C2([S@](C)(=N)=O)CC2)nc(-c2cc[nH]c3nccc2-3)n1 [ceralasertib]	4.49 ± 1.5
CCN1CCN(Cc2ccc(Nc3ncc(F)c(-c4cc(F)c5nc(C)n(C(C)C)c5c4)n3)nc2)CC1 [abemaciclib]	4.69 ± 1.5
NC1(C(=O)N[C@@H](CCO)c2ccc(Cl)cc2)CCN(c2nc[nH]c3nccc2-3)CC1 [capivasertib]	4.42 ± 1.4
CC(C)n1nc(-c2ccc3oc(N)nc3c2)c2c(N)ncnc21 [sapanisertib]	4.45 ± 1.4
O=C(c1ccc(F)c(F)c1Nc1ccc(I)cc1F)N1CC(O)([C@@H]2CCCCN2)C1 [cobimetinib]	4.46 ± 1.5
C[C@H](NC(=O)CCC(F)(F)F)C(=O)N[C@@H]1C(=O)N(CCO)c2ncccc2-c2ccccc21 [crenigacestat]	4.4 ± 1.4
Cc1cc(Nc2ncc(Cl)c(Nc3ccccc3S(=O)(=O)C(C)C)n2)c(OC(C)C)cc1C1CCNCC1 [ceritinib]	4.6 ± 1.5
CS(=O)(=O)c1ccc(C(=O)Nc2ccc(Cl)c(-c3ccccn3)c2)c(Cl)c1 [vismodegib]	4.54 ± 1.4
NC(=O)c1cccc2cn(-c3ccc([C@@H]4CCCNC4)cc3)nc12 [niraparib]	4.51 ± 1.5

same assay, conditions: 0.1 µM

SMILES	CTG-3D luminescence at 96 h
C[C@@H]1COCCN1c1cc(C2([S@](C)(=N)=O)CC2)nc(-c2cc[nH]c3nccc2-3)n1 [ceralasertib]	4.47 ± 1.3
CCN1CCN(Cc2ccc(Nc3ncc(F)c(-c4cc(F)c5nc(C)n(C(C)C)c5c4)n3)nc2)CC1 [abemaciclib]	4.48 ± 1.1
NC1(C(=O)N[C@@H](CCO)c2ccc(Cl)cc2)CCN(c2nc[nH]c3nccc2-3)CC1 [capivasertib]	4.28 ± 1.3
CC(C)n1nc(-c2ccc3oc(N)nc3c2)c2c(N)ncnc21 [sapanisertib]	2.89 ± 0.7
O=C(c1ccc(F)c(F)c1Nc1ccc(I)cc1F)N1CC(O)([C@@H]2CCCCN2)C1 [cobimetinib]	3.88 ± 1.1
C[C@H](NC(=O)CCC(F)(F)F)C(=O)N[C@@H]1C(=O)N(CCO)c2ncccc2-c2ccccc21 [crenigacestat]	4.27 ± 1.2
Cc1cc(Nc2ncc(Cl)c(Nc3ccccc3S(=O)(=O)C(C)C)n2)c(OC(C)C)cc1C1CCNCC1 [ceritinib]	4.48 ± 1.2
CS(=O)(=O)c1ccc(C(=O)Nc2ccc(Cl)c(-c3ccccn3)c2)c(Cl)c1 [vismodegib]	4.53 ± 1.3
NC(=O)c1cccc2cn(-c3ccc([C@@H]4CCCNC4)cc3)nc12 [niraparib]	4.46 ± 1.3

same assay, conditions: 1 µM

SMILES	CTG-3D luminescence at 96 h
C[C@@H]1COCCN1c1cc(C2([S@](C)(=N)=O)CC2)nc(-c2cc[nH]c3nccc2-3)n1 [ceralasertib]	4.27 ± 1.3
CCN1CCN(Cc2ccc(Nc3ncc(F)c(-c4cc(F)c5nc(C)n(C(C)C)c5c4)n3)nc2)CC1 [abemaciclib]	4.55 ± 1.2
NC1(C(=O)N[C@@H](CCO)c2ccc(Cl)cc2)CCN(c2nc[nH]c3nccc2-3)CC1 [capivasertib]	4.07 ± 1.2
CC(C)n1nc(-c2ccc3oc(N)nc3c2)c2c(N)ncnc21 [sapanisertib]	2.2 ± 0.52
O=C(c1ccc(F)c(F)c1Nc1ccc(I)cc1F)N1CC(O)([C@@H]2CCCCN2)C1 [cobimetinib]	2.4 ± 1.1
C[C@H](NC(=O)CCC(F)(F)F)C(=O)N[C@@H]1C(=O)N(CCO)c2ncccc2-c2ccccc21 [crenigacestat]	4.51 ± 1.4
Cc1cc(Nc2ncc(Cl)c(Nc3ccccc3S(=O)(=O)C(C)C)n2)c(OC(C)C)cc1C1CCNCC1 [ceritinib]	4.36 ± 1.4
CS(=O)(=O)c1ccc(C(=O)Nc2ccc(Cl)c(-c3ccccn3)c2)c(Cl)c1 [vismodegib]	4.66 ± 1.5
NC(=O)c1cccc2cn(-c3ccc([C@@H]4CCCNC4)cc3)nc12 [niraparib]	4.41 ± 1.4

same assay, conditions: 10 µM

SMILES	CTG-3D luminescence at 96 h
C[C@@H]1COCCN1c1cc(C2([S@](C)(=N)=O)CC2)nc(-c2cc[nH]c3nccc2-3)n1 [ceralasertib]	3.1 ± 0.82
CCN1CCN(Cc2ccc(Nc3ncc(F)c(-c4cc(F)c5nc(C)n(C(C)C)c5c4)n3)nc2)CC1 [abemaciclib]	3.73 ± 1.6
NC1(C(=O)N[C@@H](CCO)c2ccc(Cl)cc2)CCN(c2nc[nH]c3nccc2-3)CC1 [capivasertib]	3.88 ± 1
CC(C)n1nc(-c2ccc3oc(N)nc3c2)c2c(N)ncnc21 [sapanisertib]	1.22 ± 0.26
O=C(c1ccc(F)c(F)c1Nc1ccc(I)cc1F)N1CC(O)([C@@H]2CCCCN2)C1 [cobimetinib]	1.24 ± 0.67
C[C@H](NC(=O)CCC(F)(F)F)C(=O)N[C@@H]1C(=O)N(CCO)c2ncccc2-c2ccccc21 [crenigacestat]	4.53 ± 1.3
Cc1cc(Nc2ncc(Cl)c(Nc3ccccc3S(=O)(=O)C(C)C)n2)c(OC(C)C)cc1C1CCNCC1 [ceritinib]	0.0178 ± 0.0055
CS(=O)(=O)c1ccc(C(=O)Nc2ccc(Cl)c(-c3ccccn3)c2)c(Cl)c1 [vismodegib]	4.73 ± 1.4
NC(=O)c1cccc2cn(-c3ccc([C@@H]4CCCNC4)cc3)nc12 [niraparib]	3.96 ± 0.87

same assay, conditions: 100 µM

SMILES	CTG-3D luminescence at 96 h
C[C@@H]1COCCN1c1cc(C2([S@](C)(=N)=O)CC2)nc(-c2cc[nH]c3nccc2-3)n1 [ceralasertib]	1.86 ± 0.51
CCN1CCN(Cc2ccc(Nc3ncc(F)c(-c4cc(F)c5nc(C)n(C(C)C)c5c4)n3)nc2)CC1 [abemaciclib]	0.0487 ± 0.012
NC1(C(=O)N[C@@H](CCO)c2ccc(Cl)cc2)CCN(c2nc[nH]c3nccc2-3)CC1 [capivasertib]	2.39 ± 0.74
CC(C)n1nc(-c2ccc3oc(N)nc3c2)c2c(N)ncnc21 [sapanisertib]	0.518 ± 0.11
O=C(c1ccc(F)c(F)c1Nc1ccc(I)cc1F)N1CC(O)([C@@H]2CCCCN2)C1 [cobimetinib]	-0.00771 ± 0.0062
C[C@H](NC(=O)CCC(F)(F)F)C(=O)N[C@@H]1C(=O)N(CCO)c2ncccc2-c2ccccc21 [crenigacestat]	4.69 ± 1.3
Cc1cc(Nc2ncc(Cl)c(Nc3ccccc3S(=O)(=O)C(C)C)n2)c(OC(C)C)cc1C1CCNCC1 [ceritinib]	-0.011 ± 0.0032
CS(=O)(=O)c1ccc(C(=O)Nc2ccc(Cl)c(-c3ccccn3)c2)c(Cl)c1 [vismodegib]	4 ± 1.1
NC(=O)c1cccc2cn(-c3ccc([C@@H]4CCCNC4)cc3)nc12 [niraparib]	0.00282 ± 0.0062

same assay, conditions: 625 fM

SMILES	CTG-3D luminescence at 96 h
C[C@@H]1COCCN1c1cc(C2([S@](C)(=N)=O)CC2)nc(-c2cc[nH]c3nccc2-3)n1 [ceralasertib]	4.53 ± 1.4
CCN1CCN(Cc2ccc(Nc3ncc(F)c(-c4cc(F)c5nc(C)n(C(C)C)c5c4)n3)nc2)CC1 [abemaciclib]	4.67 ± 1.3
NC1(C(=O)N[C@@H](CCO)c2ccc(Cl)cc2)CCN(c2nc[nH]c3nccc2-3)CC1 [capivasertib]	4.44 ± 1.4
CC(C)n1nc(-c2ccc3oc(N)nc3c2)c2c(N)ncnc21 [sapanisertib]	4.61 ± 1.5
O=C(c1ccc(F)c(F)c1Nc1ccc(I)cc1F)N1CC(O)([C@@H]2CCCCN2)C1 [cobimetinib]	4.43 ± 1.4
C[C@H](NC(=O)CCC(F)(F)F)C(=O)N[C@@H]1C(=O)N(CCO)c2ncccc2-c2ccccc21 [crenigacestat]	4.5 ± 1.4
Cc1cc(Nc2ncc(Cl)c(Nc3ccccc3S(=O)(=O)C(C)C)n2)c(OC(C)C)cc1C1CCNCC1 [ceritinib]	4.51 ± 1.3
CS(=O)(=O)c1ccc(C(=O)Nc2ccc(Cl)c(-c3ccccn3)c2)c(Cl)c1 [vismodegib]	4.62 ± 1.4
NC(=O)c1cccc2cn(-c3ccc([C@@H]4CCCNC4)cc3)nc12 [niraparib]	4.58 ± 1.3

— the supplement of paper PMC8882468
